# Test results taken from US20100310679A1, “NOVEL COMPOSITIONS FOR CONTROL OF MALICIOUS MARINE ANEMONES” (priority 2008, published 2010).
# Test system: marine pest anemone
# Assay: Empirically determined effective concentration ranges of ingredients in agar-anemonescide-desensitizer preparation
# Format: in vivo
# Details: concentration of the ingredient in the agar-anemonescide-desensitizer preparation
# From the text: Table 1 also lists the empirically determined effective concentration ranges of the various ingredients. While it is believed that less than the minimal effective concentrations might impair the effectiveness of that ingredient, and more than effective concentration will not further improve the effectiveness, it is to be understood that the table is provided by way of enablement and is not to be construed as limiting the invention to the preferred ranges.
row,Structure (SMILES),Empirically Determined Effective Concentration range (Min-Max)
1,O.O.[Ca+2].[Cl-].[Cl-] [CaCl2•2H2O],10-500 g/l
2,"O=S(=O)([O-])[O-].[Ca+2] [CaSO4, calcium sulphate]",5 to 150 g/L
3,"O=S(=O)([O-])[O-].[Mg+2] [MgSO4, magnesium sulphate]",0.5 to 10 g/L
4,"[Na+].[OH-] [NaOH, sodium hydroxide]",5 to 120 g/L

# Test system: sea anemone Anthopleura midorii
# Assay: not given
# Details: added to artificial food; cited from earlier work
row,Structure (SMILES),effect on feeding motions
1,N[C@@H](CS)C(=O)O [Cysteine],induced food ingestion
2,C[C@H](N)C(=O)O [alanine],stimulated the retention of artificial food by tentacles
3,NC(=O)C[C@H](N)C(=O)O [asparagine],stimulated the retention of artificial food by tentacles
4,NCC(=O)O [glycine],stimulated the retention of artificial food by tentacles
5,N[C@@H](Cc1c[nH]cn1)C(=O)O [histidine],stimulated the retention of artificial food by tentacles
6,O=C(O)[C@@H]1CCCN1 [proline],evoked mouth opening
7,"N[C@@H](CCC(=O)N[C@@H](CS)C(=O)NCC(=O)O)C(=O)O [reduced glutathione (GSH), reduced glutathione]",induced food ingestion
